# Molecular target: T1, K-Ras G12C (Homo sapiens, UniProt P01116, G12C)
# T1 construct: This protein contained 188 amino acids in total, including an N-terminal 6-Histidine tag; made in house; host or cells: E. coli BL21
# Experiment: CAF assay (% CAF; method in Example 7, not in this part)
# Assay type: binding
# Conditions: 10 uM compound, 1 h incubation
row,Structure (SMILES),"% CAF @ 10 uM, 1h [%]"
1,"C=CC(=O)N1CCN(c2nc(=O)n3c4c(c(-c5ccc(F)c6cccnc56)c(Cl)cc24)SC[C@@H]3COC)[C@@H](C)C1 [Example 474, (3S)-7-((S)-4-acryloyl-2-methylpiperazin-1-yl)-9-chloro-10-(5-fluoroquinolin-8-yl)-3-(methoxymethyl)-2,3-dihydro-5H-[1,4]thiazino[2,3,4-ij]quinazolin-5-one]",73.3
2,"C=CC(=O)N1C[C@H](C)N(c2nc(=O)n3c4c(c(-c5cc(F)c(F)cc5F)c(Cl)cc24)SC[C@@H]3CC2CCN(CC(F)F)CC2)C[C@H]1C [Example 476, (3S)-7-((2S,5R)-4-acryloyl-2,5-dimethylpiperazin-1-yl)-9-chloro-3-((1-(2,2-difluoroethyl)piperidin-4-yl)methyl)-10-(2,4,5-trifluorophenyl)-2H-[1,4]thiazino[2,3,4-ij]quinazolin-5(3H)-one]",53.8
3,"C=CC(=O)N1[C@H](C)CN(c2nc(=O)n3c4c(c(-c5cc(Cl)c(F)cc5F)c(C(F)(F)F)cc24)SC[C@@H]3COCOC)C[C@@H]1C [Example 567, (3S)-7-((3S,5R)-4-acryloyl-3,5-dimethylpiperazin-1-yl)-10-(5-chloro-2,4-difluorophenyl)-3-((methoxymethoxy)methyl)-9-(trifluoromethyl)-2H-[1,4]thiazino[2,3,4-ij]quinazolin-5(3H)-one]",64.4
4,"C=CC(=O)N1[C@H](C)CN(c2nc(=O)n3c4c(c(-c5cc(Cl)c(F)cc5F)c(C(F)(F)F)cc24)SC[C@@H]3CO)C[C@@H]1C [Example 568, (3S)-7-((3S,5R)-4-acryloyl-3,5-dimethylpiperazin-1-yl)-10-(5-chloro-2,4-difluorophenyl)-3-(hydroxymethyl)-9-(trifluoromethyl)-2H-[1,4]thiazino[2,3,4-ij]quinazolin-5(3H)-one]",52.3
5,"[2H]C1([2H])N(C(=O)C=C)C([2H])([2H])C([2H])([2H])N(c2nc(=O)n3c4c(c(-c5ccc(F)cc5F)c(C(F)(F)F)cc24)SCC2(COC2)C3)C1([2H])[2H] [Example 589, 8′-(4-Acryloylpiperazin-1-yl-2,2,3,3,5,5,6,6-d8)-11′-(2,4-difluorophenyl)-10′-(trifluoromethyl)-2′H,4′H,6′H-spiro[oxetane-3,3′-[1,4]thiazepino[2,3,4-ij]quinazolin]-6′-one]",92.9
6,"C=C(F)C(=O)N1C2CC(=O)CC1CN(c1nc(=O)n3c4c(c(-c5ccc(F)cc5F)c(C(F)(F)F)cc14)SCC3)C2 [Example 418, 10-(2,4-difluorophenyl)-7-(9-(2-fluoroacryloyl)-7-oxo-3,9-diazabicyclo[3.3.1]nonan-3-yl)-9-(trifluoromethyl)-2,3-dihydro-5H-[1,4]thiazino[2,3,4-ij]quinazolin-5-one]",58
7,"O=C1CC2CN(c3nc(=O)n4c5c(c(-c6ccc(F)cc6F)c(C(F)(F)F)cc35)SCC4)CC(C1)N2C(=O)/C=C/C(F)(F)F [Example 440, (E)-10-(2,4-difluorophenyl)-7-(7-oxo-9-(4,4,4-trifluorobut-2-enoyl)-3,9-diazabicyclo[3.3.1]nonan-3-yl)-9-(trifluoromethyl)-2,3-dihydro-5H-[1,4]thiazino[2,3,4-ij]quinazolin-5-one]",96

# Results, then the molecule that gave them:
row,"% CAF @ 10 uM, 1h [%]",Structure (SMILES)
1,22.6,"C=CC(=O)N1CCN(c2nc(=O)n3c4c(c(-c5cc(F)c(F)cc5F)c(Cl)cc24)SC[C@H]3COCOC)[C@@H](C)C1 [Example 466, (3R)-7-((S)-4-acryloyl-2-methylpiperazin-1-yl)-9-chloro-3-((methoxymethoxy)methyl)-10-(2,4,5-trifluorophenyl)-2H-[1,4]thiazino[2,3,4-ij]quinazolin-5(3H)-one]"
2,42,"C=CC(=O)N1CCN(c2nc(=O)n3c4c(c(-c5ccc(F)cc5F)c(Cl)cc24)SC[C@H]3COCOC)[C@@H](C)C1 [Example 479, (3R)-7-((S)-4-acryloyl-2-methylpiperazin-1-yl)-9-chloro-10-(2,4-difluorophenyl)-3-((methoxymethoxy)methyl)-2H-[1,4]thiazino[2,3,4-ij]quinazolin-5(3H)-one]"
3,51.1,"C=CC(=O)N1CCN(c2nc(=O)n3c4c(c(-c5cc(F)c(F)cc5F)c(Cl)cc24)SC[C@@H]3CN2CCN(C3CC3)CC2)[C@@H](C)C1 [Example 520, (3S)-7-((S)-4-acryloyl-2-methylpiperazin-1-yl)-9-chloro-3-((4-cyclopropylpiperazin-1-yl)methyl)-10-(2,4,5-trifluorophenyl)-2H-[1,4]thiazino[2,3,4-ij]quinazolin-5(3H)-one]"
4,77.6,"C=CC(=O)N1CCN(c2nc(=O)n3c4c(c(-c5cc(Cl)c(F)cc5F)c(Cl)cc24)SC[C@@H]3CN2CCC3(CC2)COC3)[C@@H](C)C1 [Example 456, (3S)-3-(2-oxa-7-azaspiro[3.5]nonan-7-ylmethyl)-7((S)-4-acryloyl-2-methylpiperazin-1-yl)-9-chloro-10-(5-chloro-2,4-difluorophenyl)-2H-[1,4]thiazino[2,3,4-ij]quinazolin-5(3H)-one]"

# Same assay, conditions: 10 uM, 1 h; Table 3
row,"% CAF @ 10 uM, 1h [%]",Structure (SMILES)
1,75.9,"C=CC(=O)N1CCN(c2nc(=O)n3c4c(c(-c5c(F)cccc5F)c(Cl)cc24)SCC3)[C@@H](C)C1 [Example 170, (S)-7-(4-acryloyl-2-methylpiperazin-1-yl)-9-chloro-10-(2,6-difluorophenyl)-2,3-dihydro-5H-[1,4]thiazino[2,3,4-ij]quinazolin-5-one]"
2,37.2,"C=CC(=O)N1CCN(c2nc(=O)n3c4c(c(-c5c(C)ccc6[nH]ncc56)c(Cl)cc24)SCC3)[C@@H](C)C1 [Example 159, 7-((S)-4-acryloyl-2-methylpiperazin-1-yl)-9-chloro-10-(5-methyl-1H-indazol-4-yl)-2,3-dihydro-5H-[1,4]thiazino[2,3,4-ij]quinazolin-5-one]"
3,30.6,"C=CC(=O)N1CCN(c2nc(=O)n3c4c(c(-c5c(O)cccc5F)c(Cl)cc24)SCC3)[C@@H](C)C1 [Example 168, 7-((S)-4-acryloyl-2-methylpiperazin-1-yl)-9-chloro-10-(2-fluoro-6-hydroxyphenyl)-2,3-dihydro-5H-[1,4]thiazino[2,3,4-ij]quinazolin-5-one]"
4,58.3,"C=CC(=O)N1C[C@H](C)N(c2nc(=O)n3c4c(c(-c5ccc(F)cc5F)c(Cl)cc24)S(=O)(=O)CC3)C[C@H]1C (atropisomer, axis not shown) [Example 178, (R)-7-((2S,5R)-4-acryloyl-2,5-dimethylpiperazin-1-yl)-9-chloro-10-(2,4-difluorophenyl)-2,3-dihydro-5H-[1,4]thiazino[2,3,4-ij]quinazolin-5-one 1,1-dioxide]"
5,96,"C=CC(=O)N1CCN(c2nc(=O)n3c4c(c(-c5ccccc5F)c(Cl)cc24)SCC3)[C@@H](C)C1 (atropisomer, axis not shown) [Example 124, (S)-7-((S)-4-acryloyl-2-methylpiperazin-1-yl)-9-chloro-10-(2-fluorophenyl)-2,3-dihydro-5H-[1,4]thiazino[2,3,4-ij]quinazolin-5-one]"
6,94.7,"C=CC(=O)N1CCN(c2nc(=O)n3c4c(c(-c5ccc(F)cc5F)c(Br)cc24)SCC3)[C@@H](C)C1 [Example 142, 7-((S)-4-acryloyl-2-methylpiperazin-1-yl)-9-bromo-10-(2,4-difluorophenyl)-2,3-dihydro-5H-[1,4]thiazino[2,3,4-ij]quinazolin-5-one]"
7,87.2,"C=CC(=O)N1CCN(c2nc(=O)n3c4c(c(-c5ccc(F)cc5F)c(Cl)cc24)SC[C@H]3C)[C@@H](C)C1 [Example 99, (3R)-7-((S)-4-acryloyl-2-methylpiperazin-1-yl)-9-chloro-10-(2,4-difluorophenyl)-3-methyl-2H-[1,4]thiazino[2,3,4-ij]quinazolin-5(3H)-one]"
8,94,"C=CC(=O)N1CCN(c2nc(=O)n3c4c(c(-c5ccc(F)cc5F)c(C(F)(F)F)cc24)SCC3)C2CS(=O)(=O)CC21 (stereo not drawn) [Example 100, 7-(4-acryloyl-6,6-dioxidohexahydrothieno[3,4-b]pyrazin-1(2H)-yl)-10-(2,4-difluorophenyl)-9-(trifluoromethyl)-2,3-dihydro-5H-[1,4]thiazino[2,3,4-ij]quinazolin-5-one]"
9,92,"C[C@H]1CN(C(=O)/C=C/C(F)(F)F)CCN1c1nc(=O)n2c3c(c(-c4ccc(Cl)c(F)c4)c(Cl)cc13)SCC2 [Example 79, (S,E)-9-chloro-10-(4-chloro-3-fluorophenyl)-7-(2-methyl-4-(4,4,4-trifluorobut-2-enoyl)piperazin-1-yl)-2,3-dihydro-5H-[1,4]thiazino[2,3,4-ij]quinazolin-5-one]"

row,Structure (SMILES),"% CAF @ 10 uM, 1h [%]"
1,"C=CC(=O)N1CCN(c2nc(=O)n3c4c(c(-c5ccc(F)cc5F)c(Cl)cc24)[S@@+]([O-])CC3)[C@@H](C)C1 [Example 191, 7-((S)-4-acryloyl-2-methylpiperazin-1-yl)-9-chloro-10-(2,4-difluorophenyl)-2,3-dihydro-5H-[1,4]thiazino[2,3,4-ij]quinazolin-5-one 1-oxide]",26.6

# Same assay, conditions: 10 μM, 1 h; Table 4
row,"% CAF @ 10 μM, 1 h [%]",Structure (SMILES)
1,95,"C=CC(=O)N1CCN(c2nc(=O)n3c4c(c(-c5ccc(F)cc5F)c(Cl)cc24)SC[C@@H]3CN2CCN(CC(F)F)CC2)[C@@H](C)C1 [Example 356, (3S)-7-((S)-4-acryloyl-2-methylpiperazin-1-yl)-9-chloro-3-((4-(2,2-difluoroethyl)piperazin-1-yl)methyl)-10-(2,4-difluorophenyl)-2H-[1,4]thiazino[2,3,4-ij]quinazolin-5(3H)-one]"
2,87.2,"C=CC(=O)N1CCN(c2nc(=O)n3c4c(c(-c5ccc(F)cc5F)c(Cl)cc24)SC[C@H]3C)[C@@H](C)C1 [Example 99, (3R)-7-((S)-4-acryloyl-2-methylpiperazin-1-yl)-9-chloro-10-(2,4-difluorophenyl)-3-methyl-2H-[1,4]thiazino[2,3,4-ij]quinazolin-5(3H)-one]"
3,82.4,"C=CC(=O)N1CCN(c2nc(=O)n3c4c(c(-c5ccc(F)cc5F)c(Cl)cc24)SC[C@H]3CC2CCN(C)CC2)[C@@H](C)C1 [Example 345, (3R)-7-((S)-4-acryloyl-2-methylpiperazin-1-yl)-9-chloro-10-(2,4-difluorophenyl)-3-((1-methylpiperidin-4-yl)methyl)-2H-[1,4]thiazino[2,3,4-ij]quinazolin-5(3H)-one]"
